From patent publication US12186283B2, “Bismuth-thiol compositions and methods of use” (Microbion Corporation, priority 2018, dated 2025)
“And” between values parts separate entries of the source, which are not always exact repeats. Equal entries are not always repeated.

Experiments:
P. aeruginosa = experiment: Checkerboard FIC assay, BisEDT with CF agents (Example 10); assay type: cell-based, Pseudomonas aeruginosa; details: agent alone, as observed during FIC testing
[1] = Clinical chemistry after face-mask inhalation in beagle dogs; assay type: in vivo; details: times not given
Procedure: The objective of the study is to determine the maximum tolerated dose (MTD) or maximum feasible dose (MFD) of inhaled bismuth ethanedithiol (BisEDT) after face-mask inhalation exposure (up to 60 min of exposure) in male and female beagle dogs. Animals will be monitored for up to 14 days following the first day of exposure and blood will be collected at predetermined timepoints to analyze the pharmacokinetics of BisEDT. In addition, a coagulation panel will be conducted prior to necropsy. At the conclusion of the study animals will be euthanized and undergo necropsy during which the respiratory tract will be harvested for bioanalytical and histopathological analysis. Results obtained will inform a follow up repeated dose GLP study. This test article is currently being developed as a novel formulation of a broad spectrum antimicrobial/antibiofilm agent, indicated for the treatment of lung infections in patients with cystic fibrosis.
Once adequately conditioned to the restraint device and face-masks, the animals are individually exposed to the test article aerosols. Animals receive a single face-mask inhalation exposure in a ramp study design to test article aerosols for up to 60 min. Animal observations during and post exposure determine the tolerance of inhaled BisEDT aerosols.
Group 1 (vehicle) are exposed to a vehicle atmosphere for 30 minutes. Group 2 (50 μg/kg) are exposed to BisEDT for 30 minutes. Target concentrations and exposure durations for Groups 3-5 are based on the presence of any toxicity via clinical observations or gross necropsy findings. In each of Groups 3-5, if no adverse clinical signs of toxicity are observed, the next groups' exposure will be conducted at a higher target dose. If adverse clinical signs of toxicity are observed, the next groups' exposure will be conducted at a lower target dose. This approach is repeated for all BisEDT doses. The final documented exposure duration is the maximum tolerated dose or the maximum feasible dose.
Blood are collected for pharmacokinetic (PK) analysis prior to exposure, then at 4 hr (±5 min) post exposure, and again on Day 1, Day 2, Day 7 (pre- and 4 hr (±5 min)-post exposure), Day 8, Day 9, Day 10, Day 11, Day 12, Day 13, and Day 14. A total of 0.25 mL is collected at each timepoint. No PK blood is collected from the vehicle control (Group 1) animals; only animals exposed to BisEDT have blood collected for PK analysis. Collected samples are flash frozen without processing for shipment to Medpace for bioanalytical analysis. Additional blood is collected from all animals in all groups for hematology (1 mL) and clinical chemistry (1 mL) at baseline, Day 7 (pre-exposure), and again at euthanasia. Blood (2-2 mL) is collected from all animals at necropsy for coagulation analysis (d-Dimer, fibrinogen, PT, and PTT).
For clinical chemistry analyses, whole blood (1 mL) is placed into serum separator or clot tube and […] by centrifugation at a minimum of 1300 g at 2 to 8° C. for 10 (±1) min. Plasma samples are stored at −70 to −90° C. until analysis.
Clinical chemistry samples are analyzed on a Hitachi Modular Analytics Clinical Chemistry System (Roche Diagnostics, Indianapolis, IN).

[2] = Grp 2, dogs 2001 male, 2002 female, 3 samplings each
[3] = Grp 3, dogs 3001 male, 3002 female, 3 samplings each
[4] = Grp 4, dogs 4001 male, 4004 female (3 samplings each), 4002 female, 4003 male (2 samplings each)
[5] = Grp 4 Avg (stands after dogs 4001, 4004), 3 samplings

C[C@@H](O)[C@H]1C(=O)N2C(C(=O)O)=C(S[C@@H]3CN[C@H](C(=O)N(C)C)C3)[C@H](C)[C@H]12 [MEM]
MIC (P. aeruginosa; P. aeruginosa isolate 6322): 16 µg/mL | MIC (P. aeruginosa; P. aeruginosa isolate 6977): 8 µg/mL | MIC (P. aeruginosa; P. aeruginosa isolate 7745): 16 µg/mL | MIC (P. aeruginosa; P. aeruginosa isolate 8798): 32 µg/mL | MIC (P. aeruginosa; P. aeruginosa isolate 9108): 1 µg/mL

C1C[S][Bi]([S]CC[S][Bi]2[S]CC[S]2)[S]1 [BisEDT, bismuth-1,2-ethanedithiol]
AGR [1, 2]: 1.9 and 2.0 and 1.8 and 1.7 and 2.3 | ALB [1, 2]: 3.3 g/dL and 3.4 g/dL and 3.5 g/dL and 3.6 g/dL and 3.7 g/dL | ALT [1, 2]: 22 IU/L and 18 IU/L and 29 IU/L and 27 IU/L | AST [1, 2]: 48 IU/L and 36 IU/L and 35 IU/L and 41 IU/L and 38 IU/L | BUN [1, 2]: 12 mg/dL and 16 mg/dL and 15 mg/dL and 13 mg/dL and 14 mg/dL | CA2 [1, 2]: 10.9 mg/dL and 10.8 mg/dL and 11.0 mg/dL and 10.6 mg/dL | CHOL [1, 2]: 168 mg/dL and 167 mg/dL and 152 mg/dL and 138 mg/dL and 123 mg/dL and 114 mg/dL | CREA [1, 2]: 0.7 mg/dL and 0.6 mg/dL | GGT [1, 2]: 3 IU/L | GLOB [1, 2]: 1.7 g/dL and 2.0 g/dL and 1.9 g/dL and 1.6 g/dL | GLUC [1, 2]: 91 mg/dL and 97 mg/dL and 102 mg/dL and 95 mg/dL and 98 mg/dL and 89 mg/dL | K [1, 2]: 4.5 mmo/L and 4.9 mmo/L and 4.7 mmo/L and 5.0 mmo/L and 5.2 mmo/L and 4.6 mmo/L | Na [1, 2]: 149 mmo/L and 147 mmo/L and 148 mmo/L | TBIL [1, 2]: 0.15 mg/dL | TP [1, 2]: 5.0 g/dL and 5.1 g/dL and 5.5 g/dL and 5.2 g/dL and 5.3 g/dL | AGR ([1]; Grp 2 Avg, 3 samplings): 1.8 and 2.2 and 2.1 | ALB ([1]; Grp 2 Avg, 3 samplings): 3.3 g/dL and 3.5 g/dL and 3.6 g/dL | ALPK ([1]; Grp 2 Avg, 3 samplings): 186 IU/L and 126 IU/L and 116 IU/L | ALT ([1]; Grp 2 Avg, 3 samplings): 20 IU/L and 26 IU/L and 25 IU/L | AST ([1]; Grp 2 Avg, 3 samplings): 42 IU/L and 39 IU/L and 37 IU/L | BUN ([1]; Grp 2 Avg, 3 samplings): 13 mg/dL and 15 mg/dL | CA2 ([1]; Grp 2 Avg, 3 samplings): 10.9 mg/dL and 10.8 mg/dL | CHOL ([1]; Grp 2 Avg, 3 samplings): 153 mg/dL and 145 mg/dL and 133 mg/dL | CREA ([1]; Grp 2 Avg, 3 samplings): 0.7 mg/dL and 0.6 mg/dL | GGT ([1]; Grp 2 Avg, 3 samplings): 3 IU/L | GLOB ([1]; Grp 2 Avg, 3 samplings): 1.8 g/dL and 1.7 g/dL | GLUC ([1]; Grp 2 Avg, 3 samplings): 93 mg/dL and 98 mg/dL and 96 mg/dL | K ([1]; Grp 2 Avg, 3 samplings): 4.8 mmo/L and 5.1 mmo/L and 4.7 mmo/L | Na ([1]; Grp 2 Avg, 3 samplings): 149 mmo/L and 147 mmo/L and 148 mmo/L | TBIL ([1]; Grp 2 Avg, 3 samplings): 0.15 mg/dL | TP ([1]; Grp 2 Avg, 3 samplings): 5.1 g/dL and 5.2 g/dL and 5.4 g/dL | TRIG ([1]; Grp 2 Avg, 3 samplings): 52 mg/dL and 60 mg/dL and 47 mg/dL | AGR [1, 3]: 2.0 and 2.1 and 2.3 and 1.8 and 2.6 | ALB [1, 3]: 3.2 g/dL and 3.4 g/dL and 3.5 g/dL and 3.7 g/dL | ALPK [1, 3]: 142 IU/L and 135 IU/L and 121 IU/L and 164 IU/L and 90 IU/L and 176 IU/L | ALT [1, 3]: 26 IU/L and 24 IU/L and 22 IU/L and 28 IU/L and 20 IU/L | AST [1, 3]: 30 IU/L and 32 IU/L and 33 IU/L and 28 IU/L | CA2 [1, 3]: 10.7 mg/dL and 10.5 mg/dL and 10.0 mg/dL and 11.2 mg/dL and 10.8 mg/dL and 10.4 mg/dL | CHOL [1, 3]: 100 mg/dL and 111 mg/dL and 126 mg/dL and 175 mg/dL and 141 mg/dL | CREA [1, 3]: 0.6 mg/dL and 0.7 mg/dL and 1.0 mg/dL and 0.5 mg/dL and 0.9 mg/dL | GGT [1, 3]: 3 IU/L | GLOB [1, 3]: 1.6 g/dL and 1.7 g/dL and 1.5 g/dL and 2.0 g/dL and 1.4 g/dL | K [1, 3]: 4.7 mmo/L and 5.1 mmo/L and 5.8 mmo/L and 5.5 mmo/L and 5.3 mmo/L and 5.9 mmo/L | Na [1, 3]: 146 mmo/L and 148 mmo/L and 149 mmo/L and 145 mmo/L | TBIL [1, 3]: 0.15 mg/dL | TP [1, 3]: 4.8 g/dL and 5.1 g/dL and 5.0 g/dL and 5.5 g/dL | AGR ([1]; Grp 3 Avg, 3 samplings): 2.2 and 1.9 and 2.4 | ALB ([1]; Grp 3 Avg, 3 samplings): 3.4 g/dL and 3.5 g/dL and 3.6 g/dL | ALPK ([1]; Grp 3 Avg, 3 samplings): 153 IU/L and 113 IU/L and 149 IU/L | ALT ([1]; Grp 3 Avg, 3 samplings): 27 IU/L and 22 IU/L and 21 IU/L | AST ([1]; Grp 3 Avg, 3 samplings): 30 IU/L and 32 IU/L | CA2 ([1]; Grp 3 Avg, 3 samplings): 11.0 mg/dL and 10.7 mg/dL and 10.2 mg/dL | CHOL ([1]; Grp 3 Avg, 3 samplings): 113 mg/dL and 143 mg/dL and 126 mg/dL | CREA ([1]; Grp 3 Avg, 3 samplings): 0.6 mg/dL and 1.0 mg/dL | GGT ([1]; Grp 3 Avg, 3 samplings): 3 IU/L | GLOB ([1]; Grp 3 Avg, 3 samplings): 1.6 g/dL and 1.9 g/dL and 1.5 g/dL | GLUC ([1]; Grp 3 Avg, 3 samplings): 106 mg/dL and 89 mg/dL and 58 mg/dL | K ([1]; Grp 3 Avg, 3 samplings): 5.1 mmo/L and 5.2 mmo/L and 5.9 mmo/L | Na ([1]; Grp 3 Avg, 3 samplings): 148 mmo/L and 146 mmo/L and 149 mmo/L | TBIL ([1]; Grp 3 Avg, 3 samplings): 0.15 mg/dL | TP ([1]; Grp 3 Avg, 3 samplings): 4.9 g/dL and 5.3 g/dL and 5.1 g/dL | TRIG ([1]; Grp 3 Avg, 3 samplings): 30 mg/dL and 39 mg/dL and 55 mg/dL | AGR [1, 4]: 2.3 and 1.8 and 1.9 and 2.0 and 1.7 and 1.6 | ALB [1, 4]: 3.6 g/dL and 3.4 g/dL and 3.2 g/dL and 3.3 g/dL and 3.5 g/dL | ALPK [1, 4]: 103 IU/L and 114 IU/L and 119 IU/L and 93 IU/L and 95 IU/L and 147 IU/L and 146 IU/L and 129 IU/L | ALT [1, 4]: 27 IU/L and 28 IU/L and 25 IU/L and 24 IU/L and 20 IU/L and 21 IU/L and 40 IU/L and 23 IU/L | AST [1, 4]: 32 IU/L and 39 IU/L and 34 IU/L and 33 IU/L and 38 IU/L and 31 IU/L and 35 IU/L and 30 IU/L | BUN [1, 4]: 11 mg/dL and 12 mg/dL and 13 mg/dL and 16 mg/dL and 15 mg/dL | CA2 [1, 4]: 10.8 mg/dL and 10.6 mg/dL and 10.4 mg/dL and 11.1 mg/dL and 11.2 mg/dL and 11.0 mg/dL | CREA [1, 4]: 0.7 mg/dL and 0.6 mg/dL and 0.5 mg/dL | GGT [1, 4]: 3 IU/L | GLOB [1, 4]: 1.6 g/dL and 1.9 g/dL and 1.7 g/dL and 2.1 g/dL and 2.0 g/dL | K [1, 4]: 4.7 mmo/L and 4.8 mmo/L and 4.6 mmo/L and 5.1 mmo/L and 4.3 mmo/L and 5.3 mmo/L and 4.9 mmo/L | Na [1, 4]: 152 mmo/L and 147 mmo/L and 145 mmo/L and 153 mmo/L and 148 mmo/L and 146 mmo/L and 149 mmo/L | TBIL [1, 4]: 0.15 mg/dL | TP [1, 4]: 5.2 g/dL and 5.3 g/dL and 4.9 g/dL and 5.1 g/dL and 5.0 g/dL and 5.6 g/dL and 5.5 g/dL and 5.4 g/dL | TRIG [1, 4]: 49 mg/dL and 46 mg/dL and 40 mg/dL and 53 mg/dL and 44 mg/dL and 34 mg/dL and 41 mg/dL and 55 mg/dL | AGR [1, 5]: 2.2 and 1.8 and 1.9 | ALB [1, 5]: 3.5 g/dL and 3.4 g/dL and 3.3 g/dL | ALPK [1, 5]: 103 IU/L and 104 IU/L and 107 IU/L | ALT [1, 5]: 28 IU/L and 26 IU/L | AST [1, 5]: 33 IU/L and 39 IU/L | BUN [1, 5]: 12 mg/dL and 13 mg/dL | CA2 [1, 5]: 10.8 mg/dL and 10.7 mg/dL and 10.5 mg/dL | CHOL [1, 5]: 139 mg/dL and 136 mg/dL and 112 mg/dL | CREA [1, 5]: 0.7 mg/dL and 0.6 mg/dL | GGT [1, 5]: 3 IU/L | GLOB [1, 5]: 1.7 g/dL and 1.9 g/dL | GLUC [1, 5]: 102 mg/dL and 76 mg/dL and 91 mg/dL | K [1, 5]: 4.7 mmo/L and 5.0 mmo/L and 4.5 mmo/L | Na [1, 5]: 153 mmo/L and 148 mmo/L and 146 mmo/L | TBIL [1, 5]: 0.15 mg/dL | TP [1, 5]: 5.2 g/dL and 5.3 g/dL and 5.0 g/dL | TRIG [1, 5]: 51 mg/dL and 48 mg/dL and 42 mg/dL
